{
  "source": "patent US20110118224A1",
  "about": "“USE OF STEROID SULFATASE INHIBITORS FOR THE TREATMENT OF PRETERM LABOR” (priority 2008, published 2011)",
  "key": {"[1]": {"assay": "Placental barrier crossing ability measurement (whole body autoradiography of 14C-labeled compound)", "type": "in vivo, rat", "details": "for Passage of the placental barrier: compound and/or its main metabolite", "experimental": "The ability of a steroid sulfatase inhibitor according to the invention to cross the placental barrier can be investigated as follows. This assay was performed with a steroid sulfatase inhibitor according to the invention (Estradiol Sulfamate or E2MATE) which is used for the treatment of symptoms related to estrogen deficiency in postmenopausal or hysterectomized women.\nSix female albino rats received a single intravenous bolus dose of 0.47 mg ^14C-labeled Estradiol Sulfamate per kg. Six female albino, 3 pregnant albino and 4 female pigmented rats received 1 mg ^14C-labeled Estradiol Sulfamate per kg as an intragastic dose. […] Animals were deeply frozen in a mixture of hexane and dry ice and embedded into a block of carboxymethyl cellulose, which was frozen and stored at approximately −20° C. External standards were used for semi-quantitative evaluation of radioluminograms and were prepared by spiking an erythrocyte concentrate with different concentrations of ^14C-radioactivity. Pores were drilled into a separate block of carboxymethyl cellulose, filled with external standards and frozen at approximately −20° C. Whole body sagittal sections of 50 μm thickness were taken through each animal and the external standard block using a Leica CM 3600 cryomicrotome. After freeze drying of the sections in the cryostat for a minimum time of 48 hours, they were exposed to an Imaging Plate (IP) for a period of 4 to 24 hours and the IP was scanned using the bioimaging analyzer BAS 2000. For evaluation, the external standard samples were related to a colored scale using the software AIDA (Advanced Image Data Analysis, version 3.10, Raytest, Germany), each color representing a specific radioactive concentration (MBq). The different tissues were compared semi-quantitatively to the external standards and concentration ranges were determined."}, "[2]": {"tested_on": "time-mated female Sprague-Dawley rats", "assay": "Developmental toxicity in the rat", "type": "in vivo", "source_text": "The safety of a use of a steroid sulfatase inhibitor according to the invention, measured by no or minor effects induced on foetus development during gestation in pregnant rat can be investigated as follows.\nThe effects of a steroid sulfatase inhibitor according to the invention (Estradiol Sulfamate or E2MATE) on the embryonic and foetal development of the rat was investigated when administered during the period of organogenesis (Days 6 to 17 of gestation). Four groups each of 20 time-mated female Sprague-Dawley rats were dosed with 0 (Control), 7.5, 22 or 60 μg/kg/day of Estardiol sulfamate from Day 6 to Day 17 of gestation. A further group of twenty females was dosed with ethinylestradiol at 80 μg/kg/day and acted as a positive control.\nClinical observations, bodyweight and food consumption were recorded and the progress and outcome of pregnancy was assessed on Day 20 of gestation. Foetal pathology to assess abnormalities and variations was carried out on all foetuses."}, "[3]": {"tested_on": "time-mated female New Zealand White rabbits", "assay": "Developmental toxicity in the rabbit", "type": "in vivo", "source_text": "The safety of a use of a steroid sulfatase inhibitor according to the invention, measured by no or minor effects induced on foetus development during gestation in pregnant rabbit can be investigated as follows.\nThe effects of a steroid sulfatase inhibitor according to the invention (Estradiol Sulfamate or E2MATE) on the embryonic and foetal development of the rabbit when administered during the period of organogenesis (Days 6 to 18 of gestation). Four groups each of between 20 to 25 time-mated female New Zealand White rabbits were dosed with 0 (Control), 5, 15 or 50 μg/kg/day from Day 6 to Day 18 of gestation. A further group of twenty females was administered with ethinylestradiol at 50 μg/kg/day and acted as a positive control. Clinical observations, bodyweight and food consumption were recorded and the progress and outcome of pregnancy was assessed on Day 28 of gestation. Foetal pathology to assess abnormalities and variations was carried out on all foetuses"}, "[4]": {"details": "dosed Day 6 to Day 17 of gestation"}, "[5]": {"details": "1 h post-dose, 1 mg/kg i.g., pregnant albino rats, semi-quantitative"}, "[6]": {"details": "dosed Day 6 to Day 18 of gestation"}},
  "data": [
    {"molecule": "CC12CCC3c4ccc(OS(N)(=O)=O)cc4CCC3C1CCC2=O", "note": "(stereo not shown) [Estrone Sulfamate]", "values": [
      {"measurement": "Passage of the placental barrier", "setting": "[1]; pregnant albino rats", "value": "passed the placental barrier reversibly"}
    ]},
    {"molecule": "C[C@]12CC[C@@H]3c4ccc(OS(N)(=O)=O)cc4CC[C@H]3[C@@H]1CC[C@@H]2O", "note": "[Estradiol Sulfamate]", "values": [
      {"measurement": "Effects in foetuses / teratogenic action", "setting": "[2]; at about 22 μg/kg/day", "value": "some minor effects in foetuses but no teratogenic action"},
      {"measurement": "No Observed Adverse Effect Level (NOAEL) for foetal development", "setting": "[2]; [4]", "value": "about 22 μg/kg/day"},
      {"measurement": "No Observed Effect Level (NOEL) for female toxicity", "setting": "[2]; [4]", "value": "about 7.5 μg/kg/day"},
      {"measurement": "Observed female toxicity at the higher doses", "setting": "[2]; doses above 7.5 μg/kg/day (22 or 60 μg/kg/day)", "value": "limited to reduced food consumption and an associated reduction in bodyweight gain during gestation"},
      {"measurement": "Distribution of radiolabel in pregnant albino animals compared to female albino rats", "setting": "[1]; 1 mg/kg 14C-labeled, intragastric, pregnant (18 day p.c.) albino rats", "value": "similar"},
      {"measurement": "14C-concentrations in pregnant animals versus non-pregnant animals", "setting": "[1]; 1 h post-dose, 1 mg/kg i.g.", "value": "slightly higher"},
      {"measurement": "14C-radiolabel concentration in foetal liver", "setting": "[1]; [5]", "value": "high range"},
      {"measurement": "14C-radiolabel concentration in foetal membranes", "setting": "[1]; [5]", "value": "medium"},
      {"measurement": "14C-radiolabel concentration in mammary gland", "setting": "[1]; [5]", "value": "medium"},
      {"measurement": "14C-radiolabel concentration in placenta", "setting": "[1]; [5]", "value": "high range"},
      {"measurement": "14C-radiolabel concentration in the foetus", "setting": "[1]; [5]", "value": "high range"},
      {"measurement": "14C-concentrations (foetus, foetal liver, placenta, mammary gland, foetal membranes)", "setting": "[1]; 7 h and 1 day post dose, 1 mg/kg i.g., pregnant albino rats", "value": "between the higher low and the lower high range"},
      {"measurement": "general radiolabel concentration in pregnant animals versus non-pregnant animals", "setting": "[1]; after 7 h, 1 mg/kg i.g.", "value": "lower"},
      {"measurement": "Passage of the placental barrier", "setting": "[1]; pregnant albino rats", "value": "passed the placental barrier reversibly"},
      {"measurement": "No Observed Adverse Effect Level (NOAEL) for embryofoetal development", "setting": "[3]; [6]", "value": "about 15 μg/kg/day"},
      {"measurement": "No Observed Adverse Effect Level for maternal toxicity during the period of organogenesis", "setting": "[3]; [6]", "value": "about 5 μg/kg/day"},
      {"measurement": "Dosage-related maternal effects at higher doses", "setting": "[3]; doses above 5 μg/kg/day (15 or 50 μg/kg/day)", "value": "limited to lower bodyweight gain and food consumption"},
      {"measurement": "Tolerance by the females compared with ethinylestradiol (positive control)", "setting": "[3]; ethinylestradiol at 50 μg/kg/day", "value": "generally better tolerated"}
    ]}
  ]
}
